Legend:
[1] = amide bond; 36-membered ring; 2 steps
BXPC-3 = assay: NCI sulforhodamine B growth inhibition, pancreas cancer cells; type: cell-based, human; settings: BXPC3 pancreas, 48 h
Method: (§1) Inhibition of human cancer cell growth was assessed using the National Cancer Institute's standard sulforhodamine B assay as previously described.^19In summary, cells in a 5% fetal bovine serum/RPMI1640 medium were inoculated in 96-well plates and incubated for 24 hrs. Next, serial dilutions of the compounds were added. After 48 h, the plates were fixed with trichloroacetic acid, stained with sulforhodamine B, and read with an automated microplate reader. A growth inhibition of 50% (GI50 or the drug concentration causing a 50% reduction in the net protein increase) was calcd from optical density data with Immunosoft software. Normal cells were treated in identical conditions. Normal human prostate CRL-2221 (PZ—HPV-7) was grown in MEM 10% FBS and normal human breast MCF-10A in MEGM kit.

[2] = test system: mini panel of cancer cell lines; assay: Growth inhibition across the mini panel of cancer cell lines; type: cell-based, human; settings: for Cancer cell growth inhibition, assessment in words: mini panel of cancer cell lines (Table 1)
Method: as §1
The growth inhibition property of the silstatins and some intermediates were evaluated against a mini panel of cancer cell lines (Table 1).

MCF-7 = assay: NCI sulforhodamine B growth inhibition, breast cancer cells; type: cell-based, human; settings: MCF-7 breast, 48 h
Method: as §1

KM20L2 = assay: NCI sulforhodamine B growth inhibition, colon cancer cells; type: cell-based, human; settings: 48 h
Method: as §1

SF268 = assay: NCI sulforhodamine B growth inhibition, CNS cancer cells; type: cell-based, human; settings: 48 h
Method: as §1

NCI-H460 = assay: NCI sulforhodamine B growth inhibition, lung cancer cells; type: cell-based, human; settings: 48 h
Method: as §1

DU-145 = assay: NCI sulforhodamine B growth inhibition, prostate cancer cells; type: cell-based, human; settings: DU145 prostate, 48 h
Method: as §1

MCF-10A = assay: Sulforhodamine B growth inhibition, normal breast cells; type: cell-based, human; settings: for Growth inhibition of human normal cell lines GI50: MCF-10A normal breast
Method: as §1

CRL-2221 (PZ—HPV-7) = assay: Sulforhodamine B growth inhibition, normal prostate cells; type: cell-based, human; settings: for Growth inhibition of human normal cell lines GI50: CRL-2221 normal prostate
Method: as §1

| Compound | ring closure, isolated yield [1] | Growth inhibition of human cancer cell lines GI50 (BXPC-3) | Cancer cell growth inhibition, assessment in words [2] | Growth inhibition of human cancer cell lines GI50 (MCF-7) | Growth inhibition of human cancer cell lines GI50 (KM20L2) | Growth inhibition of human cancer cell lines GI50 (SF268) | Growth inhibition of human cancer cell lines GI50 (NCI-H460) | Growth inhibition of human cancer cell lines GI50 (DU-145) | other results |
| --- | --- | --- | --- | --- | --- | --- | --- | --- | --- |
| Cyclo-{Tyr(tBu)-D-Hcha-D-Val-Lac-[Val-D-Hcha-D-Val-Lac]2} | 34% |  |  |  |  |  |  |  |  |
| CC(C)[C@@H]1NC(=O)[C@H](C)OC(=O)[C@@H](C(C)C)NC(=O)[C@@H](CC2CCCCC2)OC(=O)[C@H](C(C)C)NC(=O)[C@H](C)OC(=O)[C@@H](C(C)C)NC(=O)[C@@H](CC2CCCCC2)OC(=O)[C@H](C(C)C)NC(=O)[C@H](C)OC(=O)[C@@H](C(C)C)NC(=O)[C@@H](CC2CCCCC2)OC1=O [Silstatin 4 (14a), Cyclo-[Val-D-Hcha-D-Val-Lac]3] |  | 500 ng/mL | marked reduction of cancer cell growth inhibition capability | 180 ng/mL | 180 ng/mL | 81 ng/mL | 400 ng/mL | 220 ng/mL |  |
| Cyclo-{Thr(tBu)-D-Hcha-D-Val-Lac-[Val-D-Hica-D-Val-Lac]2} | 48% |  |  |  |  |  |  |  |  |
| CC(C)C[C@H]1OC(=O)[C@H](C(C)C)NC(=O)[C@H](C)OC(=O)[C@@H](C(C)C)NC(=O)[C@@H](CC(C)C)OC(=O)[C@H](C(C)C)NC(=O)[C@H](C)OC(=O)[C@@H](C(C)C)NC(=O)[C@@H](CC2CCCCC2)OC(=O)[C@H](Cc2ccc(O)cc2)NC(=O)[C@H](C)OC(=O)[C@@H](C(C)C)NC1=O [Silstatin 8 (18b), Cyclo-{Tyr-D-Hcha-D-Val-Lac-[Val-D-Hica-D-Val-Lac]2}] |  | 6 ng/mL | rescuing the activity | 1.1 ng/mL | 2.1 ng/mL | 3 ng/mL | 4 ng/mL | 5.4 ng/mL |  |
| Cyclo-{Tyr(tBu)-D-Hica-D-Val-Lac-[Val-D-Hica-D-Val-Lac]2} | 11% |  |  |  |  |  |  |  |  |
| CC(C)[C@@H]1NC(=O)[C@H](C)OC(=O)[C@@H](C(C)C)NC(=O)[C@@H](CC2CCCCC2)OC(=O)[C@H]([C@@H](C)O)NC(=O)[C@H](C)OC(=O)[C@@H](C(C)C)NC(=O)[C@@H](CC2CCCCC2)OC(=O)[C@H](C(C)C)NC(=O)[C@H](C)OC(=O)[C@@H](C(C)C)NC(=O)[C@@H](CC2CCCCC2)OC1=O [Silstatin 5 (15a), Cyclo-{Thr-D-Hcha-D-Val-Lac-[Val-D-Hcha-D-Val-Lac]2}] |  | 30 ng/mL | very high inhibitory activity | 3.1 ng/mL | 4.4 ng/mL | 4.4 ng/mL | 21 ng/mL | 5 ng/mL |  |
| CC(C)C[C@H]1OC(=O)[C@H](Cc2ccc(O)cc2)NC(=O)[C@H](C)OC(=O)[C@@H](C(C)C)NC(=O)[C@@H](CC(C)C)OC(=O)[C@H](C(C)C)NC(=O)[C@H](C)OC(=O)[C@@H](C(C)C)NC(=O)[C@@H](CC(C)C)OC(=O)[C@H](C(C)C)NC(=O)[C@H](C)OC(=O)[C@@H](C(C)C)NC1=O [Silstatin 3 (8b), Cyclo-{Tyr-D-Hica-D-Val-Lac-[Val-D-Hica-D-Val-Lac]2}] |  | 5 ng/mL | somewhat decreased activity | 1.6 ng/mL | 1.1 ng/mL | 4 ng/mL | 3.7 ng/mL | 5.1 ng/mL |  |
| Cyclo-{Thr(tBu)-D-Hica-D-Val-Lac-[Val-D-Hica-D-Val-Lac]2} | 33% |  |  |  |  |  |  |  |  |
| Cyclo-{Thr(tBu)-D-Hcha-D-Val-Lac-[Val-D-Hcha-D-Val-Lac]2} | 29% |  |  |  |  |  |  |  |  |
| CC(C)[C@@H]1NC(=O)[C@H](C)OC(=O)[C@@H](C(C)C)NC(=O)[C@@H](CC2CCCCC2)OC(=O)[C@H](C(C)C)NC(=O)[C@H](C)OC(=O)[C@@H](C(C)C)NC(=O)[C@@H](CC2CCCCC2)OC(=O)[C@H](Cc2ccc(O)cc2)NC(=O)[C@H](C)OC(=O)[C@@H](C(C)C)NC(=O)[C@@H](CC2CCCCC2)OC1=O [Silstatin 6 (15b), Cyclo-{Tyr-D-Hcha-D-Val-Lac-[Val-D-Hcha-D-Val-Lac]2}] |  | 530 ng/mL | marked reduction of cancer cell growth inhibition capability | 120 ng/mL | 90 ng/mL | 50 ng/mL | 320 ng/mL | 220 ng/mL |  |
| CC(C)C[C@H]1OC(=O)[C@H](C(C)C)NC(=O)[C@H](C)OC(=O)[C@@H](C(C)C)NC(=O)[C@@H](CC2CCCCC2)OC(=O)[C@H]([C@@H](C)OC(=O)CCCN(C)C(=O)OCc2ccc(O[C@@H]3O[C@H](C(=O)O)[C@@H](O)[C@H](O)[C@H]3O)c([N+](=O)[O-])c2)NC(=O)[C@H](C)OC(=O)[C@@H](C(C)C)NC(=O)[C@@H](CC(C)C)OC(=O)[C@H](C(C)C)NC(=O)[C@H](C)OC(=O)[C@@H](C(C)C)NC1=O [Silstatin 28] |  | 200 ng/mL |  | 31 ng/mL | 40 ng/mL | 50 ng/mL | 70 ng/mL | 130 ng/mL | Decrease of normal cell growth inhibition activity with respect to the parent silstatin 7 (18a) (MCF-10A; MCF-10A): 62.5 times; Growth inhibition of human normal cell lines GI50 (MCF-10A): 250 ng/mL; Decrease of normal cell growth inhibition activity with respect to the parent silstatin 7 (18a) (CRL-2221 (PZ—HPV-7); CRL-2221): 12.5 times; Growth inhibition of human normal cell lines GI50 (CRL-2221 (PZ—HPV-7)): 50 ng/mL; Decrease of cancer cell growth inhibition activity with respect to the parent silstatin 7 ([2]; across the six cancer cell lines of Table 1): 16-52 times |
| CC(C)C[C@H]1OC(=O)[C@H](C(C)C)NC(=O)[C@H](C)OC(=O)[C@@H](C(C)C)NC(=O)[C@@H](CC2CCCCC2)OC(=O)[C@H]([C@@H](C)O)NC(=O)[C@H](C)OC(=O)[C@@H](C(C)C)NC(=O)[C@@H](CC(C)C)OC(=O)[C@H](C(C)C)NC(=O)[C@H](C)OC(=O)[C@@H](C(C)C)NC1=O [Silstatin 7 (18a), Cyclo-{Thr-D-Hcha-D-Val-Lac-[Val-D-Hica-D-Val-Lac]2}] |  | 3.8 ng/mL | rescuing the activity | 1.4 ng/mL | 1.5 ng/mL | 3.1 ng/mL | 3.2 ng/mL | 3 ng/mL | Growth inhibition of human normal cell lines GI50 (MCF-10A): 4 ng/mL; Growth inhibition of human normal cell lines GI50 (CRL-2221 (PZ—HPV-7)): 4 ng/mL |
| Cyclo-{Tyr(tBu)-D-Hcha-D-Val-Lac-[Val-D-Hica-D-Val-Lac]2} | 22% |  |  |  |  |  |  |  |  |
| CC(C)C[C@H]1OC(=O)[C@H](C(C)C)NC(=O)[C@H](C)OC(=O)[C@@H](C(C)C)NC(=O)[C@@H](CC(C)C)OC(=O)[C@H](C(C)C)NC(=O)[C@H](C)OC(=O)[C@@H](C(C)C)NC(=O)[C@@H](CC(C)C)OC(=O)[C@H](C(C)C)NC(=O)[C@H](C)OC(=O)[C@@H](C(C)C)NC1=O [Silstatin 1 (7a), Cyclo-[Val-D-Hica-D-Val-Lac]3] |  | 0.8 ng/mL | did not affect its high potency | 0.11 ng/mL | 0.16 ng/mL | 0.21 ng/mL | 0.7 ng/mL | 0.42 ng/mL |  |
| Cyclo-[Val-D-Hica-D-Val-Lac]3 | 28% |  |  |  |  |  |  |  |  |
| Cyclo-[Val-D-Hcha-D-Val-Lac]3 | 23% |  |  |  |  |  |  |  |  |
| CC(C)C[C@H]1OC(=O)[C@H](C(C)C)NC(=O)[C@H](C)OC(=O)[C@@H](C(C)C)NC(=O)[C@@H](CC(C)C)OC(=O)[C@H]([C@@H](C)O)NC(=O)[C@H](C)OC(=O)[C@@H](C(C)C)NC(=O)[C@@H](CC(C)C)OC(=O)[C@H](C(C)C)NC(=O)[C@H](C)OC(=O)[C@@H](C(C)C)NC1=O [Silstatin 2 (8a), Cyclo-{Thr-D-Hica-D-Val-Lac-[Val-D-Hica-D-Val-Lac]2}] |  | 4 ng/mL | somewhat decreased activity | 2.2 ng/mL | 3.3 ng/mL | 3.1 ng/mL | 3.2 ng/mL | 6 ng/mL |  |

From patent US11174291B2, “Silstatin compounds” (Arizona Board of Regents on behalf of Arizona State …, priority 2015, dated 2021)
